Reference: PMC8266232, “Design, synthesis, and analysis of antiproliferative and apoptosis-inducing activities of nitrile derivatives containing a benzofuran scaffold: EGFR inhibition assay and molecular modelling study” (Journal of Enzyme Inhibition and Medicinal Chemistry, 2021)
Where two headings read alike, the source gives them in different places.

What was measured:
[1] = test system: HePG2 cells (hepatocellular carcinoma); assay: MTT antiproliferative assay, HePG2; type: cell-based, human; conditions: HePG2, triplicate, read-out: In vitro cytotoxicity IC50, HePG2
Description: (§1) The in vitro antiproliferative activity of all synthesised compounds was evaluated by an MTT assay according to the reported method[47]^,[48].
(§2) 2. Experimental procedure
(§3) 2.1. Antiproliferative screening
(§4) The in vitro antiproliferative activity of all synthesized compounds was evaluated by an MTT assay according to the reported method using five different human cancer cell lines, including […]
(§5) cervical carcinoma (HeLa), and human prostate cancer (PC-3). The cell lines were obtained from ATCC via a holding company for biological products and vaccines (VACSERA), Cairo, Egypt. The MTT assay is a colorimetric assay used for measuring the cellular growth based on the reduction of the yellow MTT to a purple formazan derivative by mitochondrial succinate dehydrogenase in viable cells. The color intensity of the formazan dye is correlated to the number of viable cells. The […]
(§6) IC50% values were calculated using dose response curves. The percentage of relative cell viability was calculated as (A570 of treated samples)/(A570 of untreated sample) × 100. The cytotoxic activity was defined as the concentration of the compound that caused 50% growth inhibition compared with the growth of an untreated cell. […]

[2] = test system: HCT-116 cells (colorectal carcinoma); assay: MTT antiproliferative assay, HCT-116; type: cell-based, human; conditions: HCT-116, triplicate, read-out: In vitro cytotoxicity IC50, HCT-116
Description: as §1, §2, §3, §4, §5, §6

[3] = test system: MCF-7 cells (human breast adenocarcinoma); assay: MTT antiproliferative assay, MCF-7; type: cell-based; conditions: MCF-7, triplicate, read-out: In vitro cytotoxicity IC50, MCF-7
Description: as §1, §2, §3, §4, §5, §6

[4] = test system: PC3 cells (human prostate carcinoma); assay: MTT antiproliferative assay, PC3; type: cell-based; conditions: PC-3, PC3, triplicate, read-out: In vitro cytotoxicity IC50, PC3
Description: as §1, §2, §3, §4, §5, §6

[5] = test system: HeLa cells (cervical carcinoma); assay: MTT antiproliferative assay, HeLa; type: cell-based, human; conditions: triplicate, read-out: In vitro cytotoxicity IC50, HeLa
Description: as §1, §2, §3, §4, §5, §6

WI38 normal cell = assay: MTT cytotoxicity on normal fibroblast cells; type: cell-based; conditions: Homo sapiens, WI-38; MTT assay, non tumour normal cell WI38
[6] = test system: HePG2, HCT-116, MCF-7, PC3, HeLa cell lines; assay: MTT antiproliferative assay, IC50 range over the cancer cell line panel; type: cell-based; conditions: Homo sapiens
Description: as §1, §2, §3, §4, §5, §6

EGFR TK = biological target: T1, EGFR TK (Homo sapiens, UniProt P00533); assay: EGFR TK inhibition assay (luminescent, Kinase-Glo MAX); type: biochemical
T1 construct: add 20 μl of diluted EGFR enzyme and incubate at 30°C for 40
Description: 2.2. Epidermal growth factor inhibition assay
In vitro luminescent EGFR tyrosine kinase assay, using Kinase-Glo® MAX as a detection reagent using DP‐Glo™ reagent that measures the adenosine diphosphate (ADP) formed from a kinase reaction, were performed; this luminescent signal positively correlates with ADP amount and kinase activity. In 17 μl of distilled water, 6 μl of Kinase assay buffer and 1 μl ATP and 1 μl PTK substrate were mixed (master mixture). In every well, mix 20 μl of the master mixture and 5 μl of Inhibitor solution (Test Inhibitor) for positive control, and use 5 μl of the same solution without inhibitor (Inhibitor buffer) as the blank solution; add 20 μl of diluted EGFR enzyme and incubate at 30°C for 40

[7] = test system: human caspase-3 (active) in HCT-116 cells; assay: Caspase-3 ELISA in HCT-116 cells; type: cell-based
Description: Caspases are critical mediators of programmed cell death, that is, apoptosis. Caspase-3 is important in processes involving dissociation of the cell and the formation of the apoptotic element; therefore, it is regarded as one of the best biochemical hallmarks of apoptosis. […] The concentration of active caspase-3 was measured using the ELISA technique. In addition, the fluorescence density produced by the tested compounds is illustrated in Figure 4. […] The level of caspase-3 increased 5.7-fold compared to the control. Moreover, a considerable 7.3-fold increase in the caspase-3 level was detected following the treatment of the MCF-7 cells with compound 11. The bioluminescent intensities of caspase-3 indicated the apoptotic activity of compounds 3 and 11.
Afterward, measure luminescence using the
tested in triplicates.[36-38].
active caspase-3 [49]. […] The tested
Subsequently, 100 µL of an
incubated for 30 min at room temperature.
chromogen. […] The intensity of the resulting colored

HCT-116 cells [8] = assay: Annexin V-FITC/PI apoptosis assay, HCT-116; conditions: HCT-116, 10 µM, 24 h; for Late apoptosis: control 0.11; for Necrosis: control 0.12; for Early apoptosis: control 0.16; for Apoptosis, Total: control 0.39
Description: (§7) A comparison was made to the control (DMSO) and reference (gefitinib).
(§8) The cell line samples were analysed using FACSCalibur flow cytometer.
(§9) with PI. The cells were compared with the control, which was treated with DMSO.
Analysis of cellular apoptosis
(§10) concentration, respectively, and then incubated for 24 h. Following incubation, 1 –5 × 10^5 cells were
(§11) harvested and suspended in 500 µ L of the binding buffer, 5 µ L of annexin V-FITC, and 5 µL of PI.
(§12) annexin V-FITC conjugate is specially engineered to produce an enhanced fluorescence signal and
(§13) photostability. The annexin V-FITC kit included annexin V-FITC for detecting apoptosis as well as PI
(§14) for detecting necrosis. Thus, apoptosis and necrosis could be effectively differentiated. Detection and
(§15) analysis of the annexin V-FITC binding by flow cytometry was conducted using a FITC signal
(§16) detector (typically FL1). PI staining was evaluated by a phycoerythrin emission signal detector

HCT-116 cells [9] = assay: Cell cycle analysis by PI flow cytometry, HCT-116; conditions: HCT-116, 10 µM, 24 h; for %Pre/G1: control 0.39, '% Apoptosis' in Figure 5A; for %G2/M: control 4.19; for %S: control 25.21; for %G0/G1: control 70.21
Description: as §7
(§17) Cell cycle analysis and induction of apoptosis
(§18) Flow cytometry analysis of the cell cycle distribution
(§19) incubation period, the cells were collected, centrifuged, and ﬁxed with ice-cold ethanol (70%). The cells were subsequently treated with a buffer containing RNAse A and 0.1% Triton X-100, and stained
(§20) with PI. The cells were compared with the control, which was treated with DMSO. The DNA content
was measured by flow cytometry [50-52].

MCF-7 cells [10] = assay: Annexin V-FITC/PI apoptosis assay, MCF-7; conditions: MCF-7, 10 µM, 24 h
Description: as §7, §8, §9
Analysis of cellular apoptosis
as §10, §11, §12, §13, §14, §15, §16

MCF-7 cells [11] = assay: Cell cycle analysis by PI flow cytometry, MCF-7; conditions: MCF-7, 10 µM, 24 h
Description: as §7, §17, §18, §19, §20
was measured by flow cytometry [50-52].

[12] = Homo sapiens, HCT-116, MTT assay
[13] = HePG2, HCT-116, MCF-7, PC3, HeLa, read-out: IC50 range over all tested cancer cell lines
[14] = four cell lines, without HCT-116, read-out: IC50 range against HePG2, MCF-7, PC3, and HeLa cell lines

T1 sequence (P00533 25-1210): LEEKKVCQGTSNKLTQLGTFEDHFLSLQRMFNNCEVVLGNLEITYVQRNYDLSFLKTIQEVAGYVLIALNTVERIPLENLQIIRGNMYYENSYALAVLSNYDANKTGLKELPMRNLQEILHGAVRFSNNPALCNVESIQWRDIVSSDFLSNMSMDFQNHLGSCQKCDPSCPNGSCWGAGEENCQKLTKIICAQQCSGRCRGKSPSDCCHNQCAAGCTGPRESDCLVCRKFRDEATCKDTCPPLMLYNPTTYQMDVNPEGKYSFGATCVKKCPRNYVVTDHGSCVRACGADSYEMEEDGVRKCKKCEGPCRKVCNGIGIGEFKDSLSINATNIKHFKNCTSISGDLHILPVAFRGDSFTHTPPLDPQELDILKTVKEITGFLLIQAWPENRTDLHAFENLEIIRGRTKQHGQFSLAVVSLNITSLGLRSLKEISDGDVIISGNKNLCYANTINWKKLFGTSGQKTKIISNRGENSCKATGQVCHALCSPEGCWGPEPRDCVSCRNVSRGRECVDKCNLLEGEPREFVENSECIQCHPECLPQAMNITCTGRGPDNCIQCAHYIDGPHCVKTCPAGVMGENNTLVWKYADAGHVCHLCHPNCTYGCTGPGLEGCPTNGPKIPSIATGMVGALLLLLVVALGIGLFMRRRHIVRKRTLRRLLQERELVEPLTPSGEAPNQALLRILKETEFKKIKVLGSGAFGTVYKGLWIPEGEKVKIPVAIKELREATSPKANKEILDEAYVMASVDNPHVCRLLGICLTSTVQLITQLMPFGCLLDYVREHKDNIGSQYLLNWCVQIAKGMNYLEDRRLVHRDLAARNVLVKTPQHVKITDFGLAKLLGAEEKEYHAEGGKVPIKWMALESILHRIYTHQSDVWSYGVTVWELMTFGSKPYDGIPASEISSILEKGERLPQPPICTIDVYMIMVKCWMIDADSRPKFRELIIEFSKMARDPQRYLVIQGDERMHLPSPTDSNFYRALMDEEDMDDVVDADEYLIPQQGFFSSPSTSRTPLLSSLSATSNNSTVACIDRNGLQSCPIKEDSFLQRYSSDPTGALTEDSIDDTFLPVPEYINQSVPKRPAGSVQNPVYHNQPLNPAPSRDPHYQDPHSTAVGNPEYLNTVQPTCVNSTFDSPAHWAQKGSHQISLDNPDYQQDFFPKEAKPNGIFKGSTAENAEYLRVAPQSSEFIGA

Row | Structure (SMILES) | IC50 ([1]; Homo sapiens, HepG2, MTT assay) | IC50 [2, 12] | IC50 ([2]; MTT assay) | IC50 ([3]; Homo sapiens, MCF7, MTT assay) | IC50 [4] | IC50 ([5]; Homo sapiens) | IC50 (WI38 normal cell) | melting point | IC50 (EGFR TK) | further results
1 | N#Cc1c(-c2cc3ccccc3o2)ccnc1NCCO [Compound 7, 4-(Benzofuran-2-yl)-2-(2-hydroxyethylamino)nicotinonitrile] | 53.4 ± 2.9 µM | 38.6 µM | 38.6 ± 2 µM | 40.8 ± 2.5 µM | 70.1 ± 3.8 µM | 73.3 ± 4.2 µM | 59.5 ± 3.23 µM | 164 to 166 °C |  | IC50 [6, 13]: 38.6 to 73.3 µM
2 | COc1ccc(CCNc2nccc(-c3cc4ccccc4o3)c2C#N)cc1 [Compound 12, 4-(Benzofuran-2-yl)-2-(4-methoxyphenethylamino)nicotinonitrile] | 70.5 ± 3.8 µM | 49.7 ± 2.9 µM |  | 61.5 ± 3.5 µM | 93.5 ± 4.4 µM | 85.4 ± 4.7 µM | 76.3 ± 4.14 µM | 156 to 158 °C |  | 
3 | CCNc1nccc(-c2cc3ccccc3o2)c1C#N [Compound 4, 4-(Benzofuran-2-yl)-2-(ethylamino)nicotinonitrile] | 58.8 ± 3.3 µM | 72.4 ± 3.8 µM |  | 55 ± 3.2 µM | 14.3 ± 1.3 µM | 21 µM |  | 155 to 158 °C |  | IC50 [5]: 21.1 ± 1.6 µM; IC50 [6, 14]: 14.3 to 58.8 µM
4 | N#Cc1c(-c2cc3ccccc3o2)ccnc1NCc1ccccc1 [Compound 10, 4-(Benzofuran-2-yl)-2-(benzylamino)nicotinonitrile] | 34.3 ± 2.1 µM | 27.5 ± 1.5 µM |  | 19.7 ± 1.6 µM | 30.9 ± 2.6 µM | 46.2 ± 3 µM |  | 180 to 182 °C | 1.12 µM | 
5 | CCCNc1nccc(-c2cc3ccccc3o2)c1C#N [Compound 5, 4-(Benzofuran-2-yl)-2-(propylamino)nicotinonitrile] | 83.6 ± 4.4 µM | 94.1 ± 5.1 µM |  | > 100 µM | 94.6 ± 4.9 µM | 75.2 ± 4.8 µM |  | 118 to 120 °C |  | IC50 [6, 14]: 75.2 to 100 µM
6 | N#Cc1c(-c2cc3ccccc3o2)ccnc1NC1CCCCC1 [Compound 9, 4-(Benzofuran-2-yl)-2-(cyclohexylamino)nicotinonitrile] | 44.7 ± 2.7 µM | 29.5 ± 1.8 µM |  | 35.2 ± 2.2 µM | 51.1 ± 3.6 µM | 73.6 ± 4.1 µM |  | 186 to 188 °C |  | 
7 | CN(C)/C=C/C(=C(C#N)C#N)c1cc2ccccc2o1 [Compound 3, (E)-2-(1-(benzofuran-2-yl)-3-(dimethylamino)allylidene)malononitrile] | 40 ± 2.5 µM | 10.8 ± 1 µM |  | 27.4 ± 1.8 µM | 44.5 ± 3.5 µM | 69 ± 3.9 µM | 63.1 ± 3.43 µM |  | 0.93 µM | Caspase-3 Conc. ([7]; 24 h treatment, ELISA, control 63.51): 363.4 pg/mL; Caspase-3 level, Fold ([7]; compared to the control): 5.7 fold; Late apoptosis (HCT-116 cells [8]): 5.79%; Necrosis (HCT-116 cells [8]): 1.32%; Early apoptosis (HCT-116 cells [8]): 5.95%; Apoptosis, Total (HCT-116 cells [8]): 13.06%; %Pre/G1 (HCT-116 cells [9]): 13.06%; %G2/M (HCT-116 cells [9]): 12.62%; %S (HCT-116 cells [9]): 20.91%; %G0/G1 (HCT-116 cells [9]): 53.41%
8 | CC(=C(C#N)C#N)c1cc2ccccc2o1 [Compound 2, 2-(1-(benzofuran-2-yl)ethylidene)malononitrile] | 16.1 to 23.7 µM | 8.81 to 13.8 µM | 8.81 ± 0.7 µM | 8.36 to 17.3 µM | 26.8 ± 2.2 µM | 39 ± 2.4 µM | 86.5 ± 4.7 µM | 140 to 142 °C | 1.09 µM | IC50 ([1]; MTT assay): 16.1 ± 1.4 µM; IC50 ([3]; MTT assay): 8.36 ± 0.9 µM
9 | COc1cccc2c1C(=O)c1c(O)c3c(c(O)c1C2=O)C[C@@](O)(C(=O)CO)C[C@@H]3O[C@H]1C[C@H](N)[C@H](O)[C@H](C)O1 [DOX, Doxorubicin, reference compound] | 4.5 ± 0.2 µM |  |  |  |  |  | 55.3 ± 3 µM |  |  | 
10 | N#Cc1c(-c2cc3ccccc3o2)ccnc1NCCCO [Compound 8, 4-(Benzofuran-2-yl)-2-(3-hydroxypropylamino)nicotinonitrile] | 16.1 to 23.7 µM | 8.81 to 13.8 µM | 13.8 ± 1.3 µM |  | 36.7 ± 2.8 µM | 58.8 ± 3.7 µM | 151 ± 8.22 µM | 124 to 126 °C | 4.24 µM | IC50 ([1]; MTT assay): 23.7 ± 1.8 µM; IC50 [6, 13]: 13.8 to 58.8 µM
11 | CCCCNc1nccc(-c2cc3ccccc3o2)c1C#N [Compound 6, 4-(Benzofuran-2-yl)-2-(butylamino)nicotinonitrile] | 79 ± 4.2 µM | 56.4 ± 3.2 µM |  | 81.6 ± 4 µM | > 100 µM | 91.9 ± 5.1 µM | 204 ± 11.1 µM | 112 to 114 °C |  | IC50 [6, 14]: 75.2 to 100 µM
12 | COc1cc2ncnc(Nc3ccc(F)c(Cl)c3)c2cc1OCCCN1CCOCC1 [Gefitinib, reference compound] |  |  |  |  |  |  |  |  |  | Necrosis (MCF-7 cells [10]; control 0.15): 1.64%; Early apoptosis (MCF-7 cells [10]; control 0.16): 4.28%; Late apoptosis (MCF-7 cells [10]; control 0.24): 7.63%; Apoptosis, Total (MCF-7 cells [10]; control 0.55): 13.55%; Late apoptosis (HCT-116 cells [8]): 7.47%; Necrosis (HCT-116 cells [8]): 1.8%; Early apoptosis (HCT-116 cells [8]): 7.22%; Apoptosis, Total (HCT-116 cells [8]): 16.49%; %Pre/G1 (MCF-7 cells [11]; control 0.55, '% Apoptosis' in Figure 6A): 13.55%; %G2/M (MCF-7 cells [11]; control 3.66): 23.63%; %S (MCF-7 cells [11]; control 27.37): 16.51%; %G0/G1 (MCF-7 cells [11]; control 66.42): 46.31%; %Pre/G1 (HCT-116 cells [9]): 16.49%; %G2/M (HCT-116 cells [9]): 21.71%; %S (HCT-116 cells [9]): 13.34%; %G0/G1 (HCT-116 cells [9]): 48.37%
13 | CN(C)C/C=C/C(=O)Nc1cc2c(Nc3ccc(F)c(Cl)c3)ncnc2cc1O[C@H]1CCOC1 [Afatinib, reference compound] | 5.53 µM | 11.2 µM | 11.2 ± 1.11 µM | 7.23 µM | 7.6 ± 0.6 µM | 6.3 ± 0.69 µM |  |  |  | IC50 ([1]; MTT assay): 5.5 ± 0.24 µM; IC50 ([3]; MTT assay): 7.2 ± 0.5 µM; IC50 [6, 13]: 5.5 to 11.2 µM
